This note sets out measurements from patent publication US20170216213A1, “DIRECTLY COMPRESSIBLE POLYVINYL ALCOHOLS” (Merck Patent GmbH, priority 2014, published 2017).

Each structure is given as a SMILES string.

This data set is described as follows: Ascorbic acid in-vitro release test (USP Apparatus 2, paddle). The format is physicochemical. As to conditions: from PVA/MCC matrix tablets (samples 1 and 2). The protocol:
9. Ascorbic acid release test: The ascorbic acid-containing compressed tablets (from the compressions with a pressing force of 20 kN) are measured in a SOTAX (Allschwil, Switzerland) in-vitro release apparatus using the “Apparatus 2 (Paddle Apparatus)” described in USP 36 under <711> and under the conditions described therein for “Extended-release dosage forms” (USP=United States Pharmacopoeia). The sampling is carried out automatically via a hose pump system with subsequent measurement in an 8453 spectrometer (Agilent Technologies, USA) and a flow cell.
The averaged values are obtained from the release tests of in each case 6 ascorbic acid-containing tablets pressed with a pressing force of 20 kN.
Measurement Apparatuses and Measurement Parameters:
1. —Sotax AT7s release apparatus fitted with Apparatus 2 (Paddle Apparatus in accordance with USP 36) • Temperature: 37° C.+/−0.5° C. • Paddle speed: 100 rpm • Volume of release medium per measurement vessel: 900 ml • Tablet weight: 500 mg • Total run time of the measurement: 720 min. (with sampling after 15, 30, 45, 60, 120, 180, 240, 300, 360, 420, 480, 540, 600, 660, 720 min.)
2. —Hose pump for sampling: Sotax CY 7-50 (SOTAX, Switzerland)
3. —8453 spectrometer (Agilent Technologies, USA) • Measurement at 244 nm in a 2 mm flow measurement cell • Evaluation via Excel • Medium preparation: Dosa Prep X8 (DOSATEC GmbH, Germany) […]

As for `O=C1O[C@H]([C@@H](O)CO)C(O)=C1O` [ascorbic acid, L(+)-ascorbic acid], the “Duration of retarded in-vitro release” value is given as “over several hours”.
